According to US20240158368A1, “Pyrrolidine Main Protease Inhibitors as Antiviral Agents” (AbbVie Inc., priority 2022, published 2024):

Key:
MERS Mpro = MERS Mpro (Middle East respiratory syndrome-related coronavirus (isolate United Kingdom/H123990006/2012) (MERS-CoV) (Betacoronavirus England 1), UniProt K9N7C7); test: biochemical
in vitro [1] = conditions: human, microsomes, pH 7.4
OC43 virus = test: microbe, parasite or virus in culture; format: cell-based; conditions: Betacoronavirus 1, OC43, Huh-7, read-out: Antiviral OC43 EC50 (μM)
SARS-CoV-2 Mpro = SARS-CoV-2 Mpro (Severe acute respiratory syndrome coronavirus 2 (2019-nCoV) (SARS-CoV-2), UniProt P0DTD1); format: biochemical
229E virus = test: organism not typed; format: cell-based; conditions: Huh-7, read-out: Antiviral 229E EC50 (μM)
in vitro [2] = conditions: PAMPA
OC43 Mpro = OC43 Mpro (Human coronavirus OC43 (HCoV-OC43), UniProt P0C6X6); format: biochemical
Chain of OC43 Mpro (P0C6X6 3247-3549 limits assumed): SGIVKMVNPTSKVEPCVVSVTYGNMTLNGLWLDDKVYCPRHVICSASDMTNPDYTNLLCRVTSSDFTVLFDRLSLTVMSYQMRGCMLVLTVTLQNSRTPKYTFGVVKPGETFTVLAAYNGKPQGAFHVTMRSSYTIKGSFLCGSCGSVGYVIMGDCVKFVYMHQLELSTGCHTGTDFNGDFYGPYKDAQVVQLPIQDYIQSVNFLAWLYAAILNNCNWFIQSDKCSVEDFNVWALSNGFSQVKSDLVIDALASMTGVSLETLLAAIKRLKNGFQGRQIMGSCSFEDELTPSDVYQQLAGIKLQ

in vitro [3] = conditions: rat, microsomes, pH 7.4
229E Mpro = 229E Mpro (Human coronavirus 229E (HCoV-229E), UniProt P0C6X1); format: biochemical
Chain of 229E Mpro (P0C6X1 2966-3267 limits assumed): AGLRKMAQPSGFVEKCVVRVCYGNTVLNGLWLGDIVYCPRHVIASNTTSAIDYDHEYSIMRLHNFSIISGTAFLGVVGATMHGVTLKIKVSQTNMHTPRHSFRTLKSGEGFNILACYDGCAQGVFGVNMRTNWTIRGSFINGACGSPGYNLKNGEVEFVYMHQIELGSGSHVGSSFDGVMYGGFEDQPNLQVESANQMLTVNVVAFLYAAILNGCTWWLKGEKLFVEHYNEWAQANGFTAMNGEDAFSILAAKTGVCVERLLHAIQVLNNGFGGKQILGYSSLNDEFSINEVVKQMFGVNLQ

[4] = tested on: SARS-CoV-2 (strain USA-WA1/2020); test: microbe, parasite or virus in culture; format: cell-based; conditions: Severe acute respiratory syndrome coronavirus 2; HeLa-ACE2 cells; read-out: Antiviral CoV-2 EC50
SARS-CoV-1 Mpro = SARS-CoV-1 Mpro (Severe acute respiratory syndrome coronavirus (SARS-CoV), UniProt P0C6X7); format: biochemical

Chain of MERS Mpro (K9N7C7 3248-3553 limits assumed): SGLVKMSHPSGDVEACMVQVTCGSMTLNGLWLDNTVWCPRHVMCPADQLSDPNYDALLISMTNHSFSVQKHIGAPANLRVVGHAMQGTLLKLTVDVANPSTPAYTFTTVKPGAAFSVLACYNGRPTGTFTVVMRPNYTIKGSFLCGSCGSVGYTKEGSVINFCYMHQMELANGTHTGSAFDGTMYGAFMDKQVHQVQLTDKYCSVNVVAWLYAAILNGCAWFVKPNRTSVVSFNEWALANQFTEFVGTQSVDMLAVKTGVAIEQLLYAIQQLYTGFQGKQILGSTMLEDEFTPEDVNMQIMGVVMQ

Structure (SMILES)	EC50 (MERS Mpro) [nM]	CLint scaled (in vitro [1]) [mL/min/kg]	EC50 (OC43 virus) [µM]	EC50 (SARS-CoV-2 Mpro) [nM]	EC50 (229E virus) [µM]	Papp (in vitro [2]) [×10⁻⁶ cm/s]	EC50 (OC43 Mpro) [nM]	CLint scaled (in vitro [3]) [mL/min/kg]	EC50 (229E Mpro) [nM]	EC50 [4] [nM]	EC50 (SARS-CoV-1 Mpro) [nM]
Cc1cc(C(=O)N2CCOCC2)c(N2C[C@H](NC(=O)c3cc(=O)[nH]c4c(F)cc(F)cc34)CC2=O)c(C2CC2)c1 [Compound 74]	1.29	< 33.3	0.429	0.59	0.248	3.54	3.4	< 56.7	7.24	52	1.43
COc1cccc2[nH]c(=O)cc(C(=O)N[C@@H]3CCN(c4c(C(=O)N5CCOCC5)cc(C)cc4C4CC4)C3)c12 [Compound 81]	2.31	65	0.013	0.49	0.073	2.81	0.66	227	2.13	18.2	1.38
COc1cccc2[nH]c(=O)cc(C(=O)N[C@@H]3CCN(c4c(Cl)cc(C)cc4C(=O)N4CCOCC4)C3)c12 [Compound 85]	1.54	103	0.21	1.4	0.382	3.19	2.27	288	9.16	274	3.13
